Tested on: P12-Ichikawa
Test: cell viability relative to DMSO control; higher = less cytotoxic
Settings: 48 h
Outline: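 In 1536-well plates, 5 μl of leukemia cells were seeded per well: 500 cells/well for NOMO1 or SEM and 1000 cells/well for P12-Ichikawa. Each line had first been adapted for at least four passages in each medium. Library compounds in DMSO were pin-dosed at 11 threefold concentrations between 47 μM and 0.79 nM, and CellTiter-Glo One luminescence was read after 48 h at 37°C. Viability is a per-plate percentage relative to DMSO wells, with cell-free wells as background.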

[1] = HPLM + 10% dialyzed FBS, 0.000781 µM
[2] = HPLM + 10% dialyzed FBS, 0.00234 µM
[3] = HPLM + 10% dialyzed FBS, 0.00702 µM
[4] = HPLM + 10% dialyzed FBS, 0.0211 µM
[5] = HPLM + 10% dialyzed FBS, 0.0632 µM
[6] = HPLM + 10% dialyzed FBS, 0.19 µM
[7] = HPLM + 10% dialyzed FBS, 0.569 µM
[8] = HPLM + 10% dialyzed FBS, 1.71 µM
[9] = HPLM + 10% dialyzed FBS, 5.12 µM
[10] = HPLM + 10% dialyzed FBS, 15.4 µM
[11] = HPLM + 10% dialyzed FBS, 46.1 µM
[12] = RPMI 5 mM glucose + 10% FBS, 0.000781 µM
[13] = RPMI 5 mM glucose + 10% FBS, 0.00234 µM
[14] = RPMI 5 mM glucose + 10% FBS, 0.00702 µM
[15] = RPMI 5 mM glucose + 10% FBS, 0.0211 µM
[16] = RPMI 5 mM glucose + 10% FBS, 0.0632 µM
[17] = RPMI 5 mM glucose + 10% FBS, 0.19 µM
[18] = RPMI 5 mM glucose + 10% FBS, 0.569 µM
[19] = RPMI 5 mM glucose + 10% FBS, 1.71 µM
[20] = RPMI 5 mM glucose + 10% FBS, 5.12 µM
[21] = RPMI 5 mM glucose + 10% FBS, 15.4 µM
[22] = RPMI 5 mM glucose + 10% FBS, 46.1 µM
[23] = RPMI 5 mM glucose + 10% dialyzed FBS, 0.000781 µM
[24] = RPMI 5 mM glucose + 10% dialyzed FBS, 0.00234 µM
[25] = RPMI 5 mM glucose + 10% dialyzed FBS, 0.00702 µM
[26] = RPMI 5 mM glucose + 10% dialyzed FBS, 0.0211 µM
[27] = RPMI 5 mM glucose + 10% dialyzed FBS, 0.0632 µM
[28] = RPMI 5 mM glucose + 10% dialyzed FBS, 0.19 µM
[29] = RPMI 5 mM glucose + 10% dialyzed FBS, 0.569 µM
[30] = RPMI 5 mM glucose + 10% dialyzed FBS, 1.71 µM
[31] = RPMI 5 mM glucose + 10% dialyzed FBS, 5.12 µM
[32] = RPMI 5 mM glucose + 10% dialyzed FBS, 15.4 µM
[33] = RPMI 5 mM glucose + 10% dialyzed FBS, 46.1 µM

| SMILES | cell viability [1] | cell viability [2] | cell viability [3] | cell viability [4] | cell viability [5] | cell viability [6] | cell viability [7] | cell viability [8] | cell viability [9] | cell viability [10] | cell viability [11] | cell viability [12] | cell viability [13] | cell viability [14] | cell viability [15] | cell viability [16] | cell viability [17] | cell viability [18] | cell viability [19] | cell viability [20] | cell viability [21] | cell viability [22] | cell viability [23] | cell viability [24] | cell viability [25] | cell viability [26] | cell viability [27] | cell viability [28] | cell viability [29] | cell viability [30] | cell viability [31] | cell viability [32] | cell viability [33] |
| --- | --- | --- | --- | --- | --- | --- | --- | --- | --- | --- | --- | --- | --- | --- | --- | --- | --- | --- | --- | --- | --- | --- | --- | --- | --- | --- | --- | --- | --- | --- | --- | --- | --- |
| CCC[S+]([O-])c1ccc2[nH]c(NC(=O)OC)nc2c1 (configuration not stated) | 98.5% | 101% | 95.7% | 96.5% | 101% | 92.7% | 102% | 91.3% | 89.5% | 25.3% | 22.6% | 84.2% | 89.9% | 89% | 89.2% | 89.7% | 93.9% | 99.8% | 85.7% | 82% | 51.1% | 27% | 92.9% | 98.8% | 87.7% | 91.2% | 95.7% | 87% | 86.3% | 84.3% | 90% | 63% | 34.7% |
| CCOC(=O)c1ccc(OC(=O)CCCCCNC(=N)N)cc1 | 117% | 121% | 123% | 122% | 125% | 126% | 124% | 76% | 10.7% | 16.3% | 17.4% |  |  |  |  |  |  |  |  |  |  |  |  |  |  |  |  |  |  |  |  |  |  |
| O=C1NC(=O)/C(=C/c2ccc3nccc(-c4ccncc4)c3c2)S1 | 112% | 120% | 122% | 115% | 98.4% | 95.9% | 83.8% | 68.4% | 57.4% | 36.1% | 5.85% | 109% | 107% | 103% | 109% | 96.2% | 74.5% | 64.2% | 50.2% | 32.6% | 17.1% | 7.42% | 104% | 109% | 114% | 115% | 98.8% | 83.3% | 68.2% | 51.1% | 34.3% | 20.6% | 6.67% |
| C[C@]12CC[C@@H]3c4ccc(O)cc4CC[C@H]3[C@@H]1[C@@H](O)[C@@H](O)[C@@H]2O | 119% | 117% | 119% | 112% | 120% | 124% | 122% | 120% | 119% | 125% | 124% | 105% | 113% | 109% | 104% | 123% | 118% | 122% | 121% | 126% | 131% | 113% | 111% | 120% | 118% | 115% | 120% | 127% | 127% | 133% | 127% | 129% | 135% |
| Cn1cnc2c(F)c(Nc3ccc(Br)cc3F)c(C(=O)NOCCO)cc21 | 88.4% | 101% | 96.6% | 11.1% | 102% | 91.9% | 91% | 85.7% | 87.2% | 86.3% | 81.2% | 84.5% | 92.6% | 96.7% | 13.6% | 92.3% | 82.7% | 80.1% | 78.2% | 75.5% | 74.2% | 73.1% | 91% | 98% | 101% | 26.2% | 97% | 93.5% | 83.8% | 89.1% | 91.8% | 86.6% | 81.4% |
| CC(C)(O)CC[C@@H](O)[C@](C)(O)[C@H]1CC[C@@]2(O)C/3=C/C(=O)[C@@H]4C[C@@H](O)[C@@H](O)C[C@]4(C)[C@H]3CC[C@]12C | 100% | 103% | 94.5% | 96.6% | 102% | 98.4% | 88.6% | 93.6% | 89.2% | 89.6% | 87.4% | 90.7% | 96.3% | 93.4% | 96.3% | 86.7% | 104% | 92.2% | 94.1% | 88% | 86% | 96.8% | 95% | 90.6% | 90.8% | 89% | 94.6% | 89.2% | 88.8% | 86.9% | 91.2% | 83.3% | 89.4% |
| ClC1=CC=C(C=C1)C(C#N)C2=C(Cl)C=C(C=C2Cl)N3\N=C/C(=O)NC3=O (configuration not stated) | 110% | 106% | 106% | 110% | 110% | 115% | 104% | 110% | 104% | 86.3% | 86.4% | 91% | 94.7% | 93.7% | 94.7% | 93.8% | 101% | 106% | 98.7% | 101% | 85.1% | 82.2% | 95.7% | 99.3% | 104% | 100% | 105% | 102% | 93.7% | 108% | 96.3% | 79.6% | 76% |
| C[C@@H]1COCCN1c1cc(C2([S@+](C)(=N)[O-])CC2)nc(-c2ccnc3[nH]ccc23)n1 | 99.7% | 103% | 106% | 110% | 110% | 109% | 99.8% | 92.3% | 47.5% | 15.7% | 7.87% | 104% | 105% | 118% | 114% | 109% | 114% | 104% | 90.7% | 55% | 19.7% | 7.94% | 99.4% | 110% | 117% | 113% | 123% | 128% | 109% | 84.7% | 40.8% | 16.5% | 8.66% |
